What was measured:
[1] = molecular target: T1, TRPA1 (Rattus norvegicus, UniProt Q6RI86); assay: Whole-cell patch-clamp of TRPA1-expressing HEK293 cells; type: cell-based; conditions: for Response relative to the full agonist AITC: AITC 1 mM
T1 construct: expressed in transfected cells; host or cells: HEK 293F
Method: (§1) Electrophysiology. […] Whole-cell and single-channel patch-clamp recordings were performed by using an EPC8 amplifier (HEKA Electronics). For whole-cell and excised patch recordings the bath solution contained 140 mMNaCl, 4 mMKCl, 1 mMMgCl2, 1.2 mMCaCl2, 10 mMHepes, 10 mM glucose, pH 7.3. For cell-attached experiments, NaCl was replaced with KCl in the bath solution. […] For neuronal recording NaCl was replaced with K-gluconate (plus 1 mMATP, 0.2 mM GTP). Solutions were applied via a gravity-fed system. […] Voltage-dependent properties were measured as described in Matt and Ahern, J. Physiol. […] The baseline currents under control conditions were subtracted. For cell-attached experiments, peak amplitudes were measured from all-points histograms, and open probability was measured as NPo>750 ms. Defolliculated Xenopus laevis oocytes were injected with ≈10 ng of hTRPA1 (gift of Ardem Patapoutian, The Scripps Research Institute, La Jolla, Calif.).
Volatile General Anesthetics and Chemicals. Saturated stock solutions of volatile GAs were prepared in gas-tight bottles by dissolving excess anesthetic agents in bath solutions overnight. From these stock solutions fresh dilutions were made up every 40-60 min. Concentrations of GAs in the bath solutions were verified by using a modified head-space gas chromatography method. […] Alcohols with <6 carbons were dissolved directly into extracellular solution, and alcohols containing 6 carbons or more were dissolved in DMSO and then diluted into extracellular solutions that were sonicated for 20 min. All other drugs were prepared as stock solutions in DMSO or ethanol and diluted into physiological solution before experiments.

[2] = system: AITC-sensitive DRG neurons; assay: Voltage- and current-clamp of DRG sensory neurons; type: cell-based, mouse; conditions: 100 μM
Method: (§2) Electrophysiology. HEK 293F cells were transfected with rat TRPV1, TRPA1, and TRPM8 (gift of David Julius, University of California, San Francisco). Dorsal root ganglia were cultured from adult mice (C57B16/J wild type and TRPV1-null, and mixed B6/129 background TRPA1-null) in Neurobasal +2% B-27 medium (Invitrogen), 0.1% L-glutamine and 1% penicillin/streptomycin. Whole-cell and single-channel patch-clamp recordings were performed by using an EPC8 amplifier (HEKA Electronics). For whole-cell and excised patch recordings the bath solution contained 140 mMNaCl, 4 mMKCl, 1 mMMgCl2, 1.2 mMCaCl2, 10 mMHepes, 10 mM glucose, pH 7.3. For cell-attached experiments, NaCl was replaced with KCl in the bath solution. The pipette solution contained 140 mM NaCl or KCl, 10 mM Hepes, 5 mM EGTA, pH 7.3. For neuronal recording NaCl was replaced with K-gluconate (plus 1 mMATP, 0.2 mM GTP). Solutions were applied via a gravity-fed system. Separate outlets were used to apply capsaicin and AITC solutions to avoid contamination. Voltage-dependent properties were measured as described in Matt and Ahern, J. Physiol. 585:469-482 (2007). Current-voltage measurements comprised a 200-ms ramp from −150 mV to +200 mV. The baseline currents under control conditions were subtracted. For cell-attached experiments, peak amplitudes were measured from all-points histograms, and open probability was measured as NPo>750 ms. Defolliculated Xenopus laevis oocytes were injected with ≈10 ng of hTRPA1 (gift of Ardem Patapoutian, The Scripps Research Institute, La Jolla, Calif.). Oocytes were placed in a Perspex chamber and continuously superfused (5 ml min^−1) with Ca^2+-free solution containing 100 mM NaCl, 2.5 mM KCl, 5 mM Hepes, 1 mM MgC12 and titrated to pH 7.3 with ˜5 mM NaOH.

[3] = molecular target: T1, TRPA1; assay: Single-channel recordings of TRPA1 (outside-out / cell-attached patches); type: cell-based
Method: as §2

[4] = system: DRG neurons from TRPA1-null mice; assay: Ca2+ imaging in DRG neurons from TRPA1-null mice; type: cell-based, mouse; conditions: desflurane n=125, propofol n=120
Method: (§3) Ca^2+ Imaging. Neurons were loaded with 1 μM Fluo4-AM (Molecular Probes) for 20 min and washed for a further 10-20 min before recording. The dye was excited at 488±15 nm. Emitted fluorescence was filtered with a 535±25 nm bandpass filter, captured by a SPOT RT digital camera (Diagnostic Instruments) and read into a computer. Analysis was performed offline by using Simple PCI software (Compix Inc.).

[5] = molecular target: TRPV1 (Rattus norvegicus, UniProt O35433); assay: Whole-cell patch-clamp of TRPV1-expressing HEK293 cells; type: cell-based; set-up: expressed in transfected cells; host or cells: HEK 293F (Invitrogen), co-transfected with GFP cDNA; conditions: 100 μM
Method: as §1
HEK cell and sensory neuron electrophysiology. […] Cell cultures were maintained at 37° C. with 5% CO2. Cells were transfected with rat TRPV 1 (gift of David Julius), and GFP cDNA using Lipofectamine™ Transfection Reagent (Invitrogen) and used 24-48 h after transfection. Nodose ganglia were obtained from adult mice (C57B16/J and TRPV1-null), cut, digested with collagenase, and cultured in Neurobasal +2% B-27 medium (Invitrogen), 0.1% L-glutamine and 1% penicillin/streptomycin on poly-D lysine-coated glass coverslips at 37° C. in 5% CO2. Neurons were used within 24-36 hr of culture. Whole-cell and single-channel patch clamp recordings were performed using an EPC8 amplifier (HEKA). The current signal was low-pass filtered at 1-3 kHz and sampled at 4 kHz. Currents were further filtered for display purposes. For whole-cell and excised patch recordings the bath solution contained (in mM): 140 NaCl, 4 KCl, 1 MgCl2, 1 EGTA, 10 HEPES, 10 glucose pH 7.3 (290 mOsm). The pipette solution contained (in mM): 140 CsC1, 10 NaCl, 10 HEPES, 5 EGTA, 2 Mg ATP and 0.03 GTP, pH 7.3. The peak amplitudes measured either during the prepulse or the tail current (within 1 ms) were plotted as a function of the test potential and normalized to the maximal current obtained from the following Boltzmann function: […]

[6] = system: mice; assay: Nocifensive behavior after topical application to the nasal epithelium; type: in vivo, mouse
Method: (§4) Behavioral Experiments and Neurogenic Inflammation. Animal experiments were performed according to National Institutes of Health and institutional guidelines. […] Nocifensive behavior (nose wiping in sawdust bedding) was recorded for 2 min with a video camera and the duration was subsequently measured by a blinded observer. […] Electromyographic (EMG) activity was recorded via platinum electrodes from the semitendinosus muscle in mice anesthetized with urethane (1.3 g/kg) as described in Ando and Watanabe, Br J. Anaesth. […] The EMG signal was recorded by using a low-pass cutoff frequency of 200 Hz and integrated offline by using a 100-ms time window. […] Ear thickness was recorded by using an engineer's micrometer (Mitutoyo Corp.) before mustard-oil application and thereafter every 15 min for 60 min of anesthesia and 60 min of recovery.

[7] = molecular target: T2, TRPM8 (Rattus norvegicus, UniProt Q8R455); assay: Whole-cell patch-clamp of TRPM8-expressing HEK293 cells; type: cell-based; conditions: 100 μM
T2 construct: expressed in transfected cells; host or cells: HEK 293F
Method: as §1

[8] = system: mice; assay: Flexor reflex response (EMG of semitendinosus muscle) after femoral artery injection; type: in vivo, mouse; conditions: propofol 500 μM, capsaicin 50 μM
Method: as §4

[9] = system: DRG neurons; assay: Ca2+ imaging in DRG neurons from wild-type mice; type: cell-based, mouse; conditions: propofol 100 μM
Method: as §3

T1 sequence (Q6RI86 whole entry): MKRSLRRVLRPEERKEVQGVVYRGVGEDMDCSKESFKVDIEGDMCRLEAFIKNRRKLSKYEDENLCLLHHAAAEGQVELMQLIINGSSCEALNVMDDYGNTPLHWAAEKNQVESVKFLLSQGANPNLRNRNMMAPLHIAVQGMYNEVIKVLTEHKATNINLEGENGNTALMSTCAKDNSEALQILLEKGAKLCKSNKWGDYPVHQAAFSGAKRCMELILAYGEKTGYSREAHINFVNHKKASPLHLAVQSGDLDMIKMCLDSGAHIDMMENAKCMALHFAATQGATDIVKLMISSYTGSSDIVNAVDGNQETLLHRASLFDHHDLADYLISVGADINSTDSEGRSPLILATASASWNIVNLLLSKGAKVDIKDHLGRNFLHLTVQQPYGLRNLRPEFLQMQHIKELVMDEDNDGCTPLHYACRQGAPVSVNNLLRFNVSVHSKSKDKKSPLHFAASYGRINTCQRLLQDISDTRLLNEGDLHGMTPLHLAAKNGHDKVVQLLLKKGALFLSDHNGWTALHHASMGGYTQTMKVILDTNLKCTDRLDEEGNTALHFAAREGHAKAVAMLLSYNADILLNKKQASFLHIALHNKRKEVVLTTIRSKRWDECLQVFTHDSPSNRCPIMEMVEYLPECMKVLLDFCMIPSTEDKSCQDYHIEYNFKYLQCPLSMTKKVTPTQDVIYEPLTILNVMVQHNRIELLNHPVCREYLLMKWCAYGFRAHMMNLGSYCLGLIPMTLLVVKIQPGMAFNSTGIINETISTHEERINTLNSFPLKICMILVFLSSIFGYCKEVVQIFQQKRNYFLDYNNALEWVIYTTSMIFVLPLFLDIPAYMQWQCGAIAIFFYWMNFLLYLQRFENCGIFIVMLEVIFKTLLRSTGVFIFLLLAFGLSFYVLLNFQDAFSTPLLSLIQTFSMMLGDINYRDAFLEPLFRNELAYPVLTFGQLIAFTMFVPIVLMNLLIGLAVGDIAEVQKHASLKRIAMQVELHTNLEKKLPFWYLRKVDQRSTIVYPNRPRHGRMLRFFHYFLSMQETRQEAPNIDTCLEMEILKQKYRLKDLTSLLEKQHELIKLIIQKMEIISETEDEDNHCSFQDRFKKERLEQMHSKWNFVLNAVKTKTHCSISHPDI
TRPV1, sequence (O35433 whole entry): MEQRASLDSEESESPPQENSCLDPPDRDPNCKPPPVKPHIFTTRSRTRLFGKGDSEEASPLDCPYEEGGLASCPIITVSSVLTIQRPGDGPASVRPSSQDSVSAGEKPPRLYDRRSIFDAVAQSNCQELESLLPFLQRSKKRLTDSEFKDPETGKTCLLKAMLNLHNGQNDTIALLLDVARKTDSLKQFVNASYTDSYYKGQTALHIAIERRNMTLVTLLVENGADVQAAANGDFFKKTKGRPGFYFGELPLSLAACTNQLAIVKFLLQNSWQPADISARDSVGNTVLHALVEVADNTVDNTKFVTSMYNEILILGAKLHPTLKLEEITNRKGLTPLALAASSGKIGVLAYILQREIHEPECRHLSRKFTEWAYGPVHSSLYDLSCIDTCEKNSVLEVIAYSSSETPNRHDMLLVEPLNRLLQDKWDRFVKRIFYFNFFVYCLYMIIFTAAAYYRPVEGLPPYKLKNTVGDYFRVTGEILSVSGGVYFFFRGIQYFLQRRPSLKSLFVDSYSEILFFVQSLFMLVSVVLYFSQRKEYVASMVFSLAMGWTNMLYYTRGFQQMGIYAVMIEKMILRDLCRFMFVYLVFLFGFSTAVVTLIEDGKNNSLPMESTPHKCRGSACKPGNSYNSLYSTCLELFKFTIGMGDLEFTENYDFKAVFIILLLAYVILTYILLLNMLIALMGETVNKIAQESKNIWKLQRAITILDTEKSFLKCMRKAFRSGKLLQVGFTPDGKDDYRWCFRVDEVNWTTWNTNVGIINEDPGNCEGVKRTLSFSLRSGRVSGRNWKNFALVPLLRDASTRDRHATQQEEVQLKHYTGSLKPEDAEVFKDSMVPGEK
T2 sequence (Q8R455 whole entry): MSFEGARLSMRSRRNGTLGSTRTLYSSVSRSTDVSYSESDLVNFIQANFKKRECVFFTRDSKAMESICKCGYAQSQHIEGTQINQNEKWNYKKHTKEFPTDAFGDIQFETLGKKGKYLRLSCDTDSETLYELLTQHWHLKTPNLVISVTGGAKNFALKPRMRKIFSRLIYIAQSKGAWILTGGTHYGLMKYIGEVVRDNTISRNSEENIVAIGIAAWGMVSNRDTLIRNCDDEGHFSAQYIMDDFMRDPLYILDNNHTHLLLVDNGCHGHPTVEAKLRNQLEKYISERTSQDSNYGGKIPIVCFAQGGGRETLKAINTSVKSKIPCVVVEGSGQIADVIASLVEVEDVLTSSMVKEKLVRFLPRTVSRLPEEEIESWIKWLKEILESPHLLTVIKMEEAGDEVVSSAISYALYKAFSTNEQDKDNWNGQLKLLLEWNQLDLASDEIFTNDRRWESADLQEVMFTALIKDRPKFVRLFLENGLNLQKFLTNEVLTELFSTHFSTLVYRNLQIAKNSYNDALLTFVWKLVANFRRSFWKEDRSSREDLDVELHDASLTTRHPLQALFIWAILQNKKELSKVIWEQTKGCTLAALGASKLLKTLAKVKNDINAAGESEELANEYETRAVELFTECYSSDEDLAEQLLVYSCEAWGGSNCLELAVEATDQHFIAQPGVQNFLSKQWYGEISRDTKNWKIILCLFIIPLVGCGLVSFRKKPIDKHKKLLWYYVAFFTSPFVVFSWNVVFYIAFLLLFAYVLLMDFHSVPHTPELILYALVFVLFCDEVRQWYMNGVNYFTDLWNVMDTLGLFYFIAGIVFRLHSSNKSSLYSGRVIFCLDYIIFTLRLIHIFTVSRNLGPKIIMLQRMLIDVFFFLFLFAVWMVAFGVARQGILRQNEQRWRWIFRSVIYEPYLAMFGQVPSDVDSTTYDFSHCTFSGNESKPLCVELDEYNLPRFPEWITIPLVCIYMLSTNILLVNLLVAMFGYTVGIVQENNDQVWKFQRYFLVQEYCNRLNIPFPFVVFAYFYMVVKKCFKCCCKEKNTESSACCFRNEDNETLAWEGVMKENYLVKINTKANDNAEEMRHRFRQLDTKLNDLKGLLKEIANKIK

With CC(C)c1cccc(C(C)C)c1O [propofol] the “Activation of TRPA1 by i.v. GAs” value ([1]; 100 μM, membrane potential −50 mV) was “robust activation”, the “Concentration range of TRPA1 activation” value ([1]; FIG. 2D) was 1 to 100 µM and the “Response relative to the full agonist AITC” value ([1]; at +200 my) was about 38%. The “Response relative to the full agonist AITC” value ([1]; at −150 mV) was “≈ 8%”, the “Co-application with octanol at TRPA1” value ([1]; propofol 100 μM + octanol 1.8 mM) was “additive response” and the “Inward currents in AITC-sensitive DRG neurons” value ([2]; n=6) was “inward currents were also observed”. The “Membrane potential under current clamp” value ([2]; elicits action potentials) was “depolarized”, the “TRPA1 unitary conductance in presence of propofol” value ([3]; 100 μM, outside-out patch, Vm +40 mV, decrease from 108 pS) was 94 pS and the “Single TRPA1 channel activity” value ([3]; cell-free patches) was “increased TRPA1 activity and reduced the unitary conductance”. The “Ca2+ responses in neurons from TRPA1-null mice” value [4] was “no responses”, the “Reduction in half-maximal voltage (V1/2) for TRPV1 activation” value ([5]; n=4-5) was 10.5 mV and the “Effect of i.v. GAs on TRPV1 channels” value ([5]; −50 mV) was “without effect”. For the same compound, the “Duration of nocifensive response” value ([6]; TRPA1+/− littermates, propofol 50% topical) was “≈ 35 s”, the “Nocifensive behavior in TRPA1-null mice” value ([6]; propofol 50% topical) was “completely absent” and the “Duration of pain-related (nocifensive) behavior” value ([6]; wild-type mice, propofol 50% topical to nasal epithelium, 2-min period) was “≈ 40 s”. For the same compound, the “Change in V1/2 of TRPM8 (ΔV1/2, increase)” value ([7]; n=5-6) was 1.7 mV, the “Effect of i.v. GAs on TRPM8 channels” value ([7]; −50 mV) was “without effect” and the “Flexor reflex muscle activity in TRPA1+/− mice” value [8] was “evoked reflex muscle activity”. For the same compound, the “Flexor reflex muscle activity in TRPA1-null mice” value [8] was “no responses” and the “Cells with dual sensitivity to propofol and AITC” value [9] was “≈ 30%”.
